According to patent US8637537B2, “Serine/threonine kinase inhibitors” (Genentech, Inc., priority 2011, dated 2014):

Target: T1, human recombinant GST-PAK1-KD protein (Homo sapiens, UniProt Q13153)
T1 construct: residues #249-545 of human PAK1, UniProtKP/Swiss Q13153; His6 (N); made in house; host or cells: Sf9 insect cells, pAcGP67 baculovirus expression vector
Assay: GST-PAK1-KD (kinase domain) biochemical assay, microfluidic mobility shift
Settings: Table II, PAK1 Ki class; read-out: Ki

T1 sequence (Q13153 249-545): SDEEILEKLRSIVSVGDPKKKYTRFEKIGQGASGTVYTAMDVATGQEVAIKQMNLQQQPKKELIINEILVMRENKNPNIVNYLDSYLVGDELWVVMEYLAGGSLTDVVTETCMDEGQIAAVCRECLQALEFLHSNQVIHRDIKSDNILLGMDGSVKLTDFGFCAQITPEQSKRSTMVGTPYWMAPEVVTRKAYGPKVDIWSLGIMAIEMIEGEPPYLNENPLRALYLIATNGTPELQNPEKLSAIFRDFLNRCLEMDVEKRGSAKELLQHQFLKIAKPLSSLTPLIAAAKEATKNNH

| Ki [nM] | Compound |
| --- | --- |
| < 50 | C[C@H](Nc1ncc(F)c(Nc2cc(C3CC3)[nH]n2)n1)c1cc(F)cc2[nH]ncc12 [II-71, (S)-N^4-(5-cyclopropyl-1H-pyrazol-3-yl)-5-fluoro-N^2-(1-(6-fluoro-1H-indazol-4-yl)ethyl)pyrimidine-2,4-diamine] |
| < 50 | C[C@H](O)CN(Cc1cc(F)cc2[nH]ncc12)c1nccc(Nc2cc(C3CC3)[nH]n2)n1 [II-72, (S)-1-((4-((5-cyclopropyl-1H-pyrazol-3-yl)amino)pyrimidin-2-yl)((6-fluoro-1H-indazol-4-yl)methyl)amino)propan-2-ol] |
| < 50 | Fc1ccc2[nH]ncc2c1CNc1nccc(Nc2cc(C3CC3)[nH]n2)n1 [II-75, N^4-(5-cyclopropyl-1H-pyrazol-3-yl)-N^2-((5-fluoro-1H-indazol-4-yl)methyl)pyrimidine-2,4-diamine] |
| < 50 | Cc1cc(Nc2ccnc(N(C)Cc3ccc4[nH]cnc4c3Cl)n2)n[nH]1 [II-76, N^2-((4-chloro-1H-benzo[d]imidazol-5-yl)methyl)-N^2-methyl-N^4-(5-methyl-1H-pyrazol-3-yl)pyrimidine-2,4-diamine] |
| < 50 | OCCN(Cc1cccc2[nH]ncc12)c1nccc(Nc2cc(C3CC3)[nH]n2)n1 [II-77, 2-(((1H-indazol-4-yl)methyl)(4-((5-cyclopropyl-1H-pyrazol-3-yl)amino)pyrimidin-2-yl)amino)ethanol] |
| < 50 | c1cc(Nc2cc(C3CC3)[nH]n2)nc(N(Cc2ccc3[nH]cnc3c2)C2CC2)n1 [II-78, N^2-((1H-benzo[d]imidazol-5-yl)methyl)-N^2-cyclopropyl-N^4-(5-cyclopropyl-1H-pyrazol-3-yl)pyrimidine-2,4-diamine] |
| < 50 | C[C@H](c1cc(Nc2ccnc(NCc3ccc4[nH]cnc4c3Cl)n2)n[nH]1)C1CC1 [II-79, (S)-N^2-((4-chloro-1H-benzo[d]imidazol-5-yl)methyl)-N^4-(5-(1-cyclopropylethyl)-1H-pyrazol-3-yl)pyrimidine-2,4-diamine] |
| < 50 | COC[C@@H](C)c1cc(Nc2ccnc(N(C)Cc3ccc4[nH]cnc4c3Cl)n2)n[nH]1 [II-80, (S)-N^2-((4-chloro-1H-benzo[d]imidazol-5-yl)methyl)-N^4-(5-(1-methoxypropan-2-yl)-1H-pyrazol-3-yl)-N^2-methylpyrimidine-2,4-diamine] |
| < 50 | Fc1cc(CNc2nccc(Nc3cc([C@H]4C[C@@H]4F)[nH]n3)n2)c2cc[nH]c2c1 [II-82, N^2-((6-fluoro-1H-indol-4-yl)methyl)-N^4-(5-((1R,2S)-2-fluorocyclopropyl)-1H-pyrazol-3-yl)pyrimidine-2,4-diamine] |
| < 50 | CN(C)CCN(Cc1cccc2[nH]ccc12)c1nccc(Nc2cc([C@@H]3C[C@H]3F)[nH]n2)n1 [II-83, N^2-((1H-indol-4-yl)methyl)-N^2-(2-(dimethylamino)ethyl)-N^4-(5-((1S,2R)-2-fluorocyclopropyl)-1H-pyrazol-3-yl)pyrimidine-2,4-diamine] |
| < 50 | CN(Cc1cccc2[nH]ncc12)c1nccc(Nc2cc(C3CC3)[nH]n2)n1 [II-84, N^2-((1H-indazol-4-yl)methyl)-N^4-(5-cyclopropyl-1H-pyrazol-3-yl)-N^2-methylpyrimidine-2,4-diamine] |
| < 50 | CCN(Cc1cc(F)cc2[nH]ncc12)c1ncc(F)c(Nc2cc(C3CC3)[nH]n2)n1 [II-85, N^4-(5-cyclopropyl-1H-pyrazol-3-yl)-N^2-ethyl-5-fluoro-N^2-((6-fluoro-1H-indazol-4-yl)methyl)pyrimidine-2,4-diamine] |
| < 50 | CN(C)CCN(Cc1cc(F)cc2[nH]ncc12)c1ncc(F)c(Nc2cc(C3CC3)[nH]n2)n1 [II-86, N^4-(5-cyclopropyl-1H-pyrazol-3-yl)-N^2-(2-(dimethylamino)ethyl)-5-fluoro-N^2-((6-fluoro-1H-indazol-4-yl)methyl)pyrimidine-2,4-diamine] |
| < 50 | CCN(Cc1cccc2[nH]ncc12)c1ncc(F)c(Nc2cc(C3CC3)[nH]n2)n1 [II-87, N^2-((1H-indazol-4-yl)methyl)-N^4-(5-cyclopropyl-1H-pyrazol-3-yl)-N^2-ethyl-5-fluoropyrimidine-2,4-diamine] |
| < 50 | CN(C)CCN(Cc1cccc2[nH]ccc12)c1nccc(Nc2cc([C@H]3C[C@@H]3F)[nH]n2)n1 [II-88, N^2-((1H-indol-4-yl)methyl)-N^2-(2-(dimethylamino)ethyl)-N^4-(5-((1R,2S)-2-fluorocyclopropyl)-1H-pyrazol-3-yl)pyrimidine-2,4-diamine] |
| < 50 | CN(C)CCN(Cc1cccc2[nH]ccc12)c1nccc(Nc2cc(C3CC3)[nH]n2)n1 [II-89, N^2-((1H-indol-4-yl)methyl)-N^4-(5-cyclopropyl-1H-pyrazol-3-yl)-N^2-(2-(dimethylamino)ethyl)-pyrimidine-2,4-diamine] |
| < 50 | c1cc(Nc2cc(C3CC3)[nH]n2)nc(N(Cc2ccc3[nH]cnc3c2)C2CCNCC2)n1 [II-90, N^2-((1H-benzo[d]imidazol-5-yl)methyl)-N^4-(5-cyclopropyl-1H-pyrazol-3-yl)-N^2-(piperidin-4-yl)pyrimidine-2,4-diamine] |

| Ki [nM] | Compound |
| --- | --- |
| < 50 | Cc1cc(Nc2nc(N(C)Cc3ccc4[nH]cnc4c3Cl)ncc2F)n[nH]1 [II-91, N^2-((4-chloro-1H-benzo[d]imidazol-5-yl)methyl)-5-fluoro-N^2-methyl-N^4-(5-methyl-1H-pyrazol-3-yl)pyrimidine-2,4-diamine] |
| < 50 | CCN(Cc1cc(F)cc2[nH]ncc12)c1nccc(Nc2cc([C@H](C)C3CC3)[nH]n2)n1 [II-92, (R)-N^4-(5-(1-cyclopropylethyl)-1H-pyrazol-3-yl)-N^2-ethyl-N^2((6-fluoro-1H-indazol-4-yl)methyl)pyrimidine-2,4-diamine] |
| < 50 | CN(Cc1cccc2[nH]ncc12)c1ncc(F)c(Nc2cc(C3CC3)[nH]n2)n1 [II-93, N^2-((1H-indazol-4-yl)methyl)-N^4-(5-cyclopropyl-1H-pyrazol-3-yl)-5-fluoro-N^2-methylpyrimidine-2,4-diamine] |
| < 50 | CO[C@@H](C)CN(Cc1cc(F)cc2[nH]ncc12)c1nccc(Nc2cc(C3CC3)[nH]n2)n1 [II-95, (S)-N^4-(5-cyclopropyl-1H-pyrazol-3-yl)-N^2-((6-fluoro-1H-indazol-4-yl)methyl)-N^2-(2-methoxypropyl)pyrimidine-2,4-diamine] |
| < 50 | CC(C)N(Cc1cc(F)cc2[nH]ncc12)c1ncc(F)c(Nc2cc(C3CC3)[nH]n2)n1 [II-96, N^4-(5-cyclopropyl-1H-pyrazol-3-yl)-5-fluoro-N^2-((6-fluoro-1H-indazol-4-yl)methyl)-N^2-isopropylpyrimidine-2,4-diamine] |
| < 50 | COc1cc(CNc2ncc(F)c(Nc3cc(C4CC4)[nH]n3)n2)c2cn[nH]c2c1 [II-98, N^4-(5-cyclopropyl-1H-pyrazol-3-yl)-5-fluoro-N^2-((6-methoxy-1H-indazol-4-yl)methyl)pyrimidine-2,4-diamine] |
| < 50 | FC(F)(F)c1cc(CNc2nccc(Nc3cc(C4CC4)[nH]n3)n2)c2cn[nH]c2c1 [II-99, N^4-(5-Cyclopropyl-1H-pyrazol-3-yl)-N^2-((6-(trifluoromethyl)-1H-indazol-4-yl)methyl)pyrimidine-2,4-diamine] |
| < 50 | CN(Cc1c(F)ccc2[nH]ncc12)c1nccc(Nc2cc(C3CC3)[nH]n2)n1 [II-100, N^4-(5-cyclopropyl-1H-pyrazol-3-yl)-N^2-((5-fluoro-1H-indazol-4-yl)methyl)-N^2-methylpyrimidine-2,4-diamine] |
| 50 to 250 | Fc1cc(CNc2ncc(F)c(Nc3cc([C@@H]4CC4(F)F)[nH]n3)n2)c2cn[nH]c2c1 [II-101, (S)-N^4-(5-(2,2-difluorocyclopropyl)-1H-pyrazol-3-yl)-5-fluoro-N^2-((6-fluoro-1H-indazol-4-yl)methyl)pyrimidine-2,4-diamine] |
| 50 to 250 | CN(Cc1ccc2[nH]cnc2c1)c1ncc(F)c(Nc2cc(C3CC3)[nH]n2)n1 [II-103, N^2-((1H-benzo[d]imidazol-5-yl)methyl)-N^4-(5-cyclopropyl-1H-pyrazol-3-yl)-5-fluoro-N^2-methylpyrimidine-2,4-diamine] |
| 50 to 250 | CCN(Cc1ccc2[nH]cnc2c1)c1ncc(F)c(Nc2cc(C3CC3)[nH]n2)n1 [II-104, N^2-((1H-benzo[d]imidazol-5-yl)methyl)-N^4-(5-cyclopropyl-1H-pyrazol-3-yl)-N^2-ethyl-5-fluoropyrimidine-2,4-diamine] |
| 50 to 250 | CN(C)CCN(Cc1ccc2[nH]cnc2c1)c1nccc(Nc2cc(C3CC3)[nH]n2)n1 [II-105, N^2-((1H-benzo[d]imidazol-5-yl)methyl)-N^4-(5-cyclopropyl-1H-pyrazol-3-yl)-N^2-(2-(dimethylamino)ethyl)pyrimidine-2,4-diamine] |
| 50 to 250 | Fc1cc(CNc2ncc(Cl)c(Nc3cc(C4CC4)[nH]n3)n2)c2cn[nH]c2c1 [II-106, 5-chloro-N^4-(5-cyclopropyl-1H-pyrazol-3-yl)-N^2-((6-fluoro-1H-indazol-4-yl)methyl)pyrimidine-2,4-diamine] |
| 50 to 250 | CCc1cc(Nc2ccnc(NCc3cc(F)cc4[nH]ncc34)n2)n[nH]1 [II-107, N^4-(5-ethyl-1H-pyrazol-3-yl)-N^2-((6-fluoro-1H-indazol-4-yl)methyl)pyrimidine-2,4-diamine] |
| 50 to 250 | Fc1cnc(N(Cc2ccc3[nH]cnc3c2)C2CCCC2)nc1Nc1cc(C2CC2)[nH]n1 [II-108, N^2-((1H-benzo[d]imidazol-5-yl)methyl)-N^2-cyclopentyl-N^4-(5-cyclopropyl-1H-pyrazol-3-yl)-5-fluoropyrimidine-2,4-diamine] |
| 250 to 1000 | Fc1cnc(NCc2cc(C(F)(F)F)cc3[nH]ncc23)nc1Nc1cc(C2CC2)[nH]n1 [II-109, N^4-(5-cyclopropyl-1H-pyrazol-3-yl)-5-fluoro-N^2-((6-(trifluoromethyl)-1H-indazol-4-yl)methyl)pyrimidine-2,4-diamine] |
| < 50 | CN(C)CCN(Cc1cc(F)cc2[nH]ncc12)c1nccc(Nc2cc(C3CC3)[nH]n2)n1 [II-110, N^4-(5-cyclopropyl-1H-pyrazol-3-yl)-N^2-(2-(dimethylamino)ethyl)-N^2-((6-fluoro-1H-indazol-4-yl)methyl)pyrimidine-2,4-diamine] |
